Source: US7297353B2, “Use of anemonin for treating aseptic inflammations” (priority 2000, dated 2007)
Values joined by “and” are separate entries in the source; they are usually repeats but may differ in a detail not shown here. Equal entries are not always repeated. “Also recorded” adds a separate entry of the source. Where two headings read alike, the source gives them in different places.

Experiments:
[1] = In vitro percutaneous penetration velocity of anemonin; type: in vitro ADME; parameters: steady penetration velocity into derma: unit not given here; conditions: for Js: steady penetration velocity / Q24: cumulative amount of percutaneous penetration medicament per square centimeter for 24 hours / Tlag: time lag: n = 3
[2] = system: murine spleens cells stimulated with ConA; assay: T-cell proliferation, spleen cells stimulated with ConA ([3H]-thymidine uptake); type: cell-based, ICR mice; conditions: for [^3H]-TDRincorparation(CPM × 10^−3): ConA 5 μg/ml, 48 hrs
Method: (§1) Fresh spleen cells were obtained from ICR mice (male, 7-9 weeks old), 5×10^5 of spleen cells were cultured in 96-well flat plates with […] of RPMI 1640 media containing 10% FBS, 100 U/ml penicillin and 100 μg/ml streptomyin in a humidified, 37° C., 5% CO2 incubator for 48 hrs. The cultures were either unstimulated, or were stimulated with 5 μg/ml of ConA or 10 μg/ml of LPS to induce T cells or B cells proliferative responses respectively. The compounds were added in cultures with indicated concentrations to test their bioactivities. Profileration was assessed in terms of uptake of [^3H]-thymidine during 6-12 hours pulsing with 20 kBq [^3H]-thymidine/well, then the cells were harvested by a Basic 96 harvester, and counted in a 1540 MicroBeta Trilux (PerkinElmer Life Sciences).

[3] = system: murine spleens cells stimulated with LPS; assay: B-cell proliferation, spleen cells stimulated with LPS ([3H]-thymidine uptake); type: cell-based, ICR mice; conditions: for [^3H]-TDRincorparation(CPM × 10^−3): LPS 10 μg/ml, 48 hrs
Method: as §1

[4] = system: B-lymphocytes from the whole spleen of mice; assay: LPS-induced responsive proliferation of B-lymphocytes ([3H] thymidine); type: cell-based; conditions: for Proliferation of B-lymphoctes LPS stimulation Average of CPM values / Proliferation of B-lymphocytes LPS stimulation Average of CPM values: LPS at 10 μg/ml, 48 hours; for inhibition of LPS-induced responsive proliferation of B-lymphocytes: final concentration range from 1 μg/ml to 100 μg/ml
Method: (§2) 5.2.1. Mice were sacrificed by removing spondyle, spleen was cut off in a sterile condition and then ground to obtain single cell suspension. After erythrocytes were got rid of the remained cells were diluted to […] with RPMI-1640 culture solution containing 10% fetal bovine serum.
(§3) 5.2.2. 200 μl solution in total volume (including 100 μl the cell suspension, 50 μl sample and 50 μl ConA or LPS) was dispensed on 96-well plate.
(§4) 50 μl culture solution containing 10% fetal bovine serum, instead of 50 μl sample, was added as negative control, in which the total volume was also 200 μl.
(§5) 5.2.3. The cell was cultured at 37° C. and under 5% CO2 in incubator for 48 hours, and [^3H] thymidine (1.9×10^4 Bq) was added to the plate at 25 μl/well 12 hours before the end of culture.
(§6) 5.2.4. The culture was continued. The plates were then stored at −20° C. in refrigeratory after the culture. The thawed cells were collected to fiberglass membrane (Nitrocellose membrane) with cell collector when detecting. After the addition of Scintillation solution, the quantity of [^3H] thymidine incorporated into DNA of cells was detected by Beta counter (MicroBeta Trilux, PerkinElmer LifeSciences). The proliferation of lymphocytes was indicated by cpm value.
Effect of the medicament on LPS-induced responsive proliferation of B-lymphocytes was examined, said B-lymphocytes were from the whole spleen of mice. LPS at 10 μg/ml final concentration was used as the stimulator to induce responsive proliferation of B-lymphocytes from the whole spleen of ICR homogenous mice (cultured in vitro for 48 hours).

IFN-γ = assay: Cytokine production from splenocytes, ConA stimulation, IFN-γ (ELISA); type: cell-based, murine; conditions: 24 h
Method: For splenocyte cytokine production assay, 5×10^6 cells per well were inoculated into a 24-well tissue culture plate with ConA (5 mg/L) or Sac (1:10000) stimulation. Different concentrations of Anemonin were added in a final volume of 2 ml. Cells were incubated at 37° C., 5% CO2 for 24 h and supernatants were harvested, IFN-γ, IL-10, IL12 (p40) and IL-2 in supernatants were measured by the sandwich enzyme-linked immunosorbent assay (ELISA) as specified by the manufacturer (BD Bioscience pharmingen, US). Concentrations of the cytokine productions were calculated based on standard curves obtained from serial dilutions of murine cytokines (r IFN-γ, rIL-10, rIL12, rIL-2). As shown in Tables C-3 and C-4, high-dose Anemonin (1-100 μg/ml) inhibited all kinds of cytokine release induced by ConA or Sac.

[5] = system: T-lymphocytes from the whole spleen of mice; assay: ConA-induced responsive proliferation of T-lymphocytes ([3H] thymidine); type: cell-based; conditions: for Proliferation of T-lymphocytes ConA stimulation Average of CPM values: ConA at 51 μg/ml, 48 hours
Method: as §2, §3, §4, §5, §6
Effect of the medicament on ConA-induced responsive proliferation of T-lymphocytes was examined, said T-lymphocytes were from the whole spleen of mice. ConA at 51 μg/ml final concentration was used as the stimulator to induce responsive proliferation of T-lymphocytes from the whole spleen of ICR homogenous mice (cultured in vitro for 48 hours).

O=C1C=CC2(CCC23C=CC(=O)O3)O1 (centres unmarked) [Anemonin, anemonin]
ER: increased permeation times ([1]; 30% ethanol solution): 2.0 | Js: steady penetration velocity ([1]; 30% ethanol solution): 4.65 ± 0.47 μg · cm^−2 · h^−1 | Q24: cumulative amount of percutaneous penetration medicament per square centimeter for 24 hours ([1]; 30% ethanol solution): 104.45 ± 12.58 μg · cm^−2 | Tlag: time lag ([1]; 30% ethanol solution): 1.09 ± 0.20 h | steady penetration velocity into derma ([1]; 30% of ethanol): 4.65 | ER: increased permeation times ([1]; water-saturated solution): 1.0 | Js: steady penetration velocity ([1]; water-saturated solution): 2.28 μg · cm^−2 · h^−1 and 2.28 ± 0.39 μg · cm^−2 · h^−1 | Q24: cumulative amount of percutaneous penetration medicament per square centimeter for 24 hours ([1]; water-saturated solution): 50.49 ± 6.48 μg · cm^−2 | Tlag: time lag ([1]; water-saturated solution): 2.05 ± 0.74 h | [^3H]-TDRincorparation(CPM × 10^−3) ([2]; 0.001 μg/ml): 30.1 ± 1.31 CPM × 10^−3 | [^3H]-TDRincorparation(CPM × 10^−3) ([2]; 0.01 μg/ml): 33.2 ± 2.56 CPM × 10^−3 | [^3H]-TDRincorparation(CPM × 10^−3) ([2]; 0.1 μg/ml): 30.9 ± 0.78 CPM × 10^−3 | [^3H]-TDRincorparation(CPM × 10^−3) ([2]; 1 μg/ml): 21.7 ± 0.53 CPM × 10^−3 | [^3H]-TDRincorparation(CPM × 10^−3) ([2]; 10 μg/ml): 0.03 ± 0.01 CPM × 10^−3 | [^3H]-TDRincorparation(CPM × 10^−3) ([2]; 100 μg/ml): 0.02 ± 0.01 CPM × 10^−3 | T-cell proliferation ([2]; 1-100 μg/ml): significantly inhibited | [^3H]-TDRincorparation(CPM × 10^−3) ([3]; 0.001 μg/ml): 52.0 ± 2.27 CPM × 10^−3 | [^3H]-TDRincorparation(CPM × 10^−3) ([3]; 0.01 μg/ml): 47.2 ± 3.41 CPM × 10^−3 | [^3H]-TDRincorparation(CPM × 10^−3) ([3]; 0.1 μg/ml): 47.5 ± 3.60 CPM × 10^−3 | [^3H]-TDRincorparation(CPM × 10^−3) ([3]; 1 μg/ml): 34.4 ± 2.41 CPM × 10^−3 | [^3H]-TDRincorparation(CPM × 10^−3) ([3]; 10 μg/ml): 0.11 ± 0.15 CPM × 10^−3 | [^3H]-TDRincorparation(CPM × 10^−3) ([3]; 100 μg/ml): 0.17 ± 0.26 CPM × 10^−3 | B-cell proliferation ([3]; 1-100 μg/ml): significantly inhibited | Proliferation of B-lymphoctes LPS stimulation Average of CPM values ([4]; 0.001 μg/ml, Table B-6): 39272 CPM | Proliferation of B-lymphoctes LPS stimulation Average of CPM values ([4]; 0.01 μg/ml, Table B-6): 39551 CPM | Proliferation of B-lymphoctes LPS stimulation Average of CPM values ([4]; 0.1 μg/ml, Table B-6): 39615 CPM | Proliferation of B-lymphocytes LPS stimulation Average of CPM values ([4]; 1 μg/ml, Table B-5): 10137 CPM | Proliferation of B-lymphoctes LPS stimulation Average of CPM values ([4]; 1 μg/ml, Table B-6): 32154 CPM | Proliferation of B-lymphocytes LPS stimulation Average of CPM values ([4]; 10 μg/ml, Table B-5): 190 CPM | Proliferation of B-lymphoctes LPS stimulation Average of CPM values ([4]; 10 μg/ml, Table B-6): 40840 CPM | Proliferation of B-lymphocytes LPS stimulation Average of CPM values ([4]; 100 μg/ml, Table B-5): 164 CPM | Proliferation of B-lymphoctes LPS stimulation Average of CPM values ([4]; 100 μg/ml, Table B-6): 24523 CPM | inhibition at 0.001 µg/mL ([4]; Mus musculus, 0.001 μg/ml, LPS stimulation, Table B-6, read-out: General assess of activity Enhancement/Inhibition): -7% | inhibition at 0.01 µg/mL ([4]; Mus musculus, 0.01 μg/ml, LPS stimulation, Table B-6, read-out: General assess of activity Enhancement/Inhibition): -8% | inhibition at 0.1 µg/mL ([4]; Mus musculus, 0.1 μg/ml, LPS stimulation, Table B-6, read-out: General assess of activity Enhancement/Inhibition): -8% | inhibition at 1 µg/mL ([4]; Mus musculus, 1 μg/ml, LPS stimulation, Table B-5, read-out: General assess of activity Enhancement/Inhibition): 33% | inhibition at 1 µg/mL ([4]; Mus musculus, 1 μg/ml, LPS stimulation, Table B-6, read-out: General assess of activity Enhancement/Inhibition): 13% | inhibition at 10 µg/mL ([4]; Mus musculus, 10 μg/ml, LPS stimulation, Table B-5, read-out: General assess of activity Enhancement/Inhibition): 99% | inhibition at 10 µg/mL ([4]; Mus musculus, 10 μg/ml, LPS stimulation, Table B-6, read-out: General assess of activity Enhancement/Inhibition): -11% | inhibition at 100 µg/mL ([4]; Mus musculus, 100 μg/ml, LPS stimulation, Table B-5, read-out: General assess of activity Enhancement/Inhibition): 99% | inhibition at 100 µg/mL ([4]; Mus musculus, 100 μg/ml, LPS stimulation, Table B-6, read-out: General assess of activity Enhancement/Inhibition): 33% | inhibition of LPS-induced responsive proliferation of B-lymphocytes [4]: sharply inhibited | inhibition of LPS-induced responsive proliferation of B-lymphocytes ([4]; listed as anemonin): remarkably inhibited | IFN-γ (IFN-γ; 0.001 μg/ml): 2405 ± 171 pg/mL | IFN-γ (IFN-γ; 0.01 μg/ml): 2651 ± 120 pg/mL | IFN-γ (IFN-γ; 0.1 μg/ml): 2298 ± 4 pg/mL | IFN-γ (IFN-γ; 1 μg/ml): 508 ± 16 pg/mL | IFN-γ (IFN-γ; 10 μg/ml): 94 ± 0 pg/mL | IFN-γ (IFN-γ; 100 μg/ml): 89 ± 3 pg/mL | Proliferation of T-lymphocytes ConA stimulation Average of CPM values ([5]; 0.001 μg/ml, Table B-4): 15466 CPM | Proliferation of T-lymphocytes ConA stimulation Average of CPM values ([5]; 0.01 μg/ml, Table B-4): 19386 CPM | Proliferation of T-lymphocytes ConA stimulation Average of CPM values ([5]; 0.1 μg/ml, Table B-4): 15284 CPM | Proliferation of T-lymphocytes ConA stimulation Average of CPM values ([5]; 1 μg/ml, Table B-3): 8650 CPM | Proliferation of T-lymphocytes ConA stimulation Average of CPM values ([5]; 1 μg/ml, Table B-4): 8438 CPM | Proliferation of T-lymphocytes ConA stimulation Average of CPM values ([5]; 10 μg/ml, Table B-3): 171 CPM | Proliferation of T-lymphocytes ConA stimulation Average of CPM values ([5]; 10 μg/ml, Table B-4): 46 CPM | Proliferation of T-lymphocytes ConA stimulation Average of CPM values ([5]; 100 μg/ml, Table B-3): 160 CPM | Proliferation of T-lymphocytes ConA stimulation Average of CPM values ([5]; 100 μg/ml, Table B-4): 155 CPM | inhibition at 0.001 µg/mL ([5]; Mus musculus, T-lymphocyte, 0.001 μg/ml, ConA stimulation, Table B-4, read-out: General assess of activity Enhancement/Inhibition): 11% | inhibition at 0.01 µg/mL ([5]; Mus musculus, T-lymphocyte, 0.01 μg/ml, ConA stimulation, Table B-4, read-out: General assess of activity Enhancement/Inhibition): -11% | inhibition at 0.1 µg/mL ([5]; Mus musculus, T-lymphocyte, 0.1 μg/ml, ConA stimulation, Table B-4, read-out: General assess of activity Enhancement/Inhibition): 13% | inhibition at 1 µg/mL ([5]; Mus musculus, T-lymphocyte, 1 μg/ml, ConA stimulation, Table B-3, read-out: General assess of activity Enhancement/Inhibition): 47% | inhibition at 1 µg/mL ([5]; Mus musculus, T-lymphocyte, 1 μg/ml, ConA stimulation, Table B-4, read-out: General assess of activity Enhancement/Inhibition): 52% | inhibition at 10 µg/mL ([5]; Mus musculus, T-lymphocyte, 10 μg/ml, ConA stimulation, Table B-3, read-out: General assess of activity Enhancement/Inhibition): 99% | inhibition at 10 µg/mL ([5]; Mus musculus, T-lymphocyte, 10 μg/ml, ConA stimulation, Table B-4, read-out: General assess of activity Enhancement/Inhibition): 100% | inhibition at 100 µg/mL ([5]; Mus musculus, T-lymphocyte, 100 μg/ml, ConA stimulation, Table B-3, read-out: General assess of activity Enhancement/Inhibition): 99% | inhibition at 100 µg/mL ([5]; Mus musculus, T-lymphocyte, 100 μg/ml, ConA stimulation, Table B-4, read-out: General assess of activity Enhancement/Inhibition): 99% | inhibition of ConA-induced responsive proliferation of lymphocytes ([5]; final concentration range from 0.1 μg/ml to 100 μg/ml): remarkably inhibited; also recorded: sharply inhibited
